In patent US6589942B1, “Chitosan metal complexes and method for controlling microbial growth on plants using same” (priority 1998, dated 2003):

Tests used:
Type in all cases: in vivo
potato leaves = assay: toxicity to potato leaves (Example 2)
cucumber plants [1] = assay: toxicity to cucumber plants (Example 3)
cucumber plants [2] = assay: toxicity to cucumber plants (Example 5)
Text: Controlling the Gray mold disease caused by Botrytis cinerea in cucumber plants utilizing 0.1% chitosan and metal complexes.

Measured: toxicity to the plant

O=[N+]([O-])[O-].O=[N+]([O-])[O-].[Cu+2] [CuNO3]
toxic: potato leaves; 25 ppm metals | potato leaves; 50 ppm metals | potato leaves; 75 ppm metals | cucumber plants [1]; 25 ppm metals | cucumber plants [1]; 50 ppm metals | cucumber plants [1]; 75 ppm metals | cucumber plants [2]; 35 ppm metals | cucumber plants [2]; 50 ppm metals
